Experimental findings from ChEMBL document CHEMBL1909294, “Translating clinical findings into knowledge in drug safety evaluation--drug induced liver injury prediction system (DILIps)” (PLoS Comput Biol, 2011) are described below.

Where a SMILES comes first, the peptide text is derived from it. Bridges are numbered along the chain shown (N, C = ends). [ ]: non-standard residue; d: D form. The star is where a group is joined. Threoninol(2S,3R) = C[C@@H](O)[C@H](CO)N*

Data set [1] relates to Hepatotoxicity.
Data set [2] deals with Hepatotoxicity. The source holds these as a separate data set.
In data set [3] the test system is Hepatotoxicity. This is another data set of the same source.
Data set [4] concerns Hepatotoxicity. The source holds these as a separate data set.
Data set [5] has as its system Hepatotoxicity. This is another data set of the same source.
For data set [6], the system named is Hepatotoxicity. This is another data set of the same source.
In data set [7] the test system is Hepatotoxicity. This is another data set of the same source.
Data set [8] deals with Hepatotoxicity. This is another data set of the same source.
Data set [9] concerns Hepatotoxicity. The source holds these as a separate data set.
Data set [10] concerns Hepatotoxicity. This is another data set of the same source.
In data set [11] the test system is Hepatotoxicity. This is another data set of the same source.
In data set [12] the test system is Hepatotoxicity. The source holds these as a separate data set.
Data set [13] has as its system Hepatotoxicity. This is another data set of the same source.
Data set [14] deals with Hepatotoxicity. This is another data set of the same source.
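For HepSE Combined Scores in this document: combined hepatic side effect score as listed in the training data of the Drug Induced Liver Injury Prediction System (DILIps).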
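For HepSE bilirubinemia in this document: bilirubinemia hepatic side effect score drawn from the DILIps training data, a prediction system for drug-induced liver injury; call rule not given here.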
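For HepSE cholecystitis in this document: Cholecystitis-related hepatic side effect score drawn from the DILIps (drug-induced liver injury prediction) training data set; call rule not given here.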
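For HepSE cholelithiasis in this document: hepatic side effect score for cholelithiasis, drawn from the DILIps training data for predicting drug-induced liver injury; call rule not given here.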
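For HepSE cirrhosis in this document: cirrhosis hepatic side effect score taken from the DILIps (drug-induced liver injury prediction) training set; call rule not given here.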
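For HepSE elevated liver function tests in this document: hepatic side effect score for raised liver function tests, as recorded in the DILIps training set used for predicting drug-induced liver injury.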
For HepSE hepatic failure in this document: call rule not given here.
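For HepSE hepatic necrosis in this document: score of hepatic side effects for hepatic necrosis, drawn from the training data of DILIps, a prediction system for drug-induced liver injury; call rule not given here.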
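For HepSE hepatitis in this document: Hepatitis-related hepatic side effect score taken from the training data of DILIps, a prediction system for drug-induced liver injury; call rule not given here.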
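For HepSE hepatomegaly in this document: hepatic side effect score for hepatomegaly, taken from the training set of the DILIps drug-induced liver injury prediction system; call rule not given here.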
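For HepSE jaundice in this document: Jaundice-related hepatic side-effect score drawn from the training data of the DILIps (drug-induced liver injury prediction system); call rule not given here.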
For HepSE liver disease in this document: call rule not given here.
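For HepSE liver fatty in this document: hepatic side effect score for fatty liver, taken from the DILIps training set for predicting drug-induced liver injury; call rule not given here.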
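For HepSE liver function tests abnormal in this document: hepatic side effect score taken from the DILIps (drug-induced liver injury prediction system) training data, here covering abnormal liver function test findings.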

In the case of `N[C@@H](Cc1cc(I)c(Oc2ccc(O)c(I)c2)c(I)c1)C(=O)O` [LIOTHYRONINE], the HepSE_cholelithiasis with Hepatotoxicity [1] came out at 0. The same compound gave a HepSE_hepatic failure in the data set with Hepatotoxicity [2] of 0. In the data set on Hepatotoxicity [3], the “HepSE_Combined Scores” value is given as 0. Also, the “HepSE_elevated liver function tests” value in the data set with Hepatotoxicity [4] is 0. This compound also returned a HepSE_cholecystitis with Hepatotoxicity [5] of 0. In the data set on Hepatotoxicity [6], this compound registered a HepSE_liver fatty of 0. Moreover, in the data set with Hepatotoxicity [7], the HepSE_bilirubinemia was determined as 0. The HepSE_hepatomegaly with Hepatotoxicity [8] turned out to be 0. Besides, in the data set with Hepatotoxicity [9], the HepSE_hepatitis is recorded as 0. The same compound yielded a HepSE_cirrhosis with Hepatotoxicity [10] of 0. In the data set with Hepatotoxicity [11], the “HepSE_liver function tests abnormal” value is on record as 0. Also, in the data set with Hepatotoxicity [12], the HepSE_liver disease was 0. The HepSE_jaundice in the data set with Hepatotoxicity [13] was found to be 0. In the data set on Hepatotoxicity [14], this compound yielded a HepSE_hepatic necrosis of 0.

As to `Nc1nc(=O)[nH]cc1F` [FLUCYTOSINE], the HepSE_cholelithiasis in the data set with Hepatotoxicity [1] is 0. In addition, the HepSE_hepatic failure with Hepatotoxicity [2] was 0. For the same compound, the “HepSE_Combined Scores” value in the data set on Hepatotoxicity [3] was determined as 1. Also, in the data set on Hepatotoxicity [4], the “HepSE_elevated liver function tests” value turned out to be 0. In the data set on Hepatotoxicity [5], this compound registered a HepSE_cholecystitis of 0. The same compound had a HepSE_liver fatty in the data set with Hepatotoxicity [6] of 0. This compound displayed a HepSE_bilirubinemia with Hepatotoxicity [7] of 0. In the data set on Hepatotoxicity [8], this compound came in with a HepSE_hepatomegaly of 0. This compound returned a HepSE_hepatitis in the data set with Hepatotoxicity [9] of 0. The HepSE_cirrhosis with Hepatotoxicity [10] came to 0. In addition, the “HepSE_liver function tests abnormal” value with Hepatotoxicity [11] was 0. Also, in the data set on Hepatotoxicity [12], the HepSE_liver disease is 0. In the data set on Hepatotoxicity [13], this compound returned a HepSE_jaundice of 1. In addition, in the data set on Hepatotoxicity [14], the HepSE_hepatic necrosis is given as 0.

Turning to `CN1CCCCC1CCN1c2ccccc2Sc2ccc([S+](C)[O-])cc21` (stereo unspecified) [MESORIDAZINE], in the data set on Hepatotoxicity [1] (Liver), the HepSE_cholelithiasis came to 0. This compound came in with a HepSE_hepatic failure in the data set on Hepatotoxicity [2] (Liver) of 0. In addition, the “HepSE_Combined Scores” value in the data set with Hepatotoxicity [3] (Liver) stood at 1. In addition, the “HepSE_elevated liver function tests” value in the data set on Hepatotoxicity [4] (Liver) worked out at 0. Besides, the HepSE_cholecystitis in the data set on Hepatotoxicity [5] (Liver) is recorded as 0. Moreover, the HepSE_liver fatty in the data set with Hepatotoxicity [6] (Liver) worked out at 0. Also, the HepSE_bilirubinemia in the data set with Hepatotoxicity [7] (Liver) is listed as 0. The same compound gave a HepSE_hepatomegaly with Hepatotoxicity [8] (Liver) of 0. Moreover, the HepSE_hepatitis in the data set with Hepatotoxicity [9] (Liver) is 0. Moreover, the HepSE_cirrhosis in the data set with Hepatotoxicity [10] (Liver) is on record as 0. Moreover, in the data set with Hepatotoxicity [11] (Liver), the “HepSE_liver function tests abnormal” value is 0. In addition, the HepSE_liver disease in the data set on Hepatotoxicity [12] (Liver) is reported as 0. Further, the HepSE_jaundice in the data set on Hepatotoxicity [13] (Liver) is 1. The HepSE_hepatic necrosis in the data set with Hepatotoxicity [14] (Liver) worked out at 0.

For the compound `CC1(C)NC(=O)N(c2ccc([N+](=O)[O-])c(C(F)(F)F)c2)C1=O` [NILUTAMIDE], the HepSE_cholelithiasis in the data set with Hepatotoxicity [1] (Liver) is listed as 0. Also, in the data set on Hepatotoxicity [2] (Liver), the HepSE_hepatic failure came to 0. Besides, the “HepSE_Combined Scores” value in the data set with Hepatotoxicity [3] (Liver) is reported as 1. Also, the “HepSE_elevated liver function tests” value with Hepatotoxicity [4] (Liver) came out at 0. Also, in the data set with Hepatotoxicity [5] (Liver), the HepSE_cholecystitis worked out at 0. In the data set on Hepatotoxicity [6] (Liver), this compound displayed a HepSE_liver fatty of 0. In addition, the HepSE_bilirubinemia with Hepatotoxicity [7] (Liver) is given as 0. In the data set on Hepatotoxicity [8] (Liver), this compound displayed a HepSE_hepatomegaly of 0. In addition, in the data set on Hepatotoxicity [9] (Liver), the HepSE_hepatitis amounted to 1. In the data set with Hepatotoxicity [10] (Liver), this compound gave a HepSE_cirrhosis of 0. Further, the “HepSE_liver function tests abnormal” value in the data set with Hepatotoxicity [11] (Liver) stood at 0. Further, the HepSE_liver disease in the data set with Hepatotoxicity [12] (Liver) was found to be 0. Besides, the HepSE_jaundice in the data set with Hepatotoxicity [13] (Liver) is 0. Further, the HepSE_hepatic necrosis in the data set with Hepatotoxicity [14] (Liver) was determined as 0.

`Cn1c(=O)c2[nH]cnc2n(C)c1=O.Cn1c(=O)c2[nH]cnc2n(C)c1=O.NCCN` [AMINOPHYLLINE]: the HepSE_cholelithiasis with Hepatotoxicity [1] is on record as 0. The HepSE_hepatic failure in the data set on Hepatotoxicity [2] is 0. Also, the “HepSE_Combined Scores” value with Hepatotoxicity [3] is 0. Moreover, the “HepSE_elevated liver function tests” value in the data set with Hepatotoxicity [4] is on record as 0. Also, the HepSE_cholecystitis in the data set with Hepatotoxicity [5] was 0. The compound further showed a HepSE_liver fatty in the data set on Hepatotoxicity [6] of 0. Further, in the data set on Hepatotoxicity [7], the HepSE_bilirubinemia worked out at 0. The compound further gave a HepSE_hepatomegaly in the data set on Hepatotoxicity [8] of 0. Moreover, the HepSE_hepatitis with Hepatotoxicity [9] came out at 0. The same compound had a HepSE_cirrhosis in the data set with Hepatotoxicity [10] of 0. In addition, the “HepSE_liver function tests abnormal” value in the data set on Hepatotoxicity [11] worked out at 0. For the same compound, the HepSE_liver disease in the data set on Hepatotoxicity [12] is recorded as 0. Also, in the data set on Hepatotoxicity [13], the HepSE_jaundice is 0. Also, in the data set with Hepatotoxicity [14], the HepSE_hepatic necrosis is recorded as 0.

`CC(C)(C#N)c1cc(Cn2cncn2)cc(C(C)(C)C#N)c1` [ANASTROZOLE] had a HepSE_cholelithiasis with Hepatotoxicity [1] of 0. The HepSE_hepatic failure with Hepatotoxicity [2] was determined as 0. In addition, in the data set with Hepatotoxicity [3], the “HepSE_Combined Scores” value was found to be 2. Besides, the “HepSE_elevated liver function tests” value in the data set with Hepatotoxicity [4] is 1. In the data set with Hepatotoxicity [5], this compound showed a HepSE_cholecystitis of 0. The compound also displayed a HepSE_liver fatty in the data set on Hepatotoxicity [6] of 0. The same compound returned a HepSE_bilirubinemia in the data set on Hepatotoxicity [7] of 0. In addition, the HepSE_hepatomegaly in the data set with Hepatotoxicity [8] was determined as 0. In addition, the HepSE_hepatitis in the data set on Hepatotoxicity [9] was 1. For the same compound, the HepSE_cirrhosis in the data set with Hepatotoxicity [10] is recorded as 0. Moreover, the “HepSE_liver function tests abnormal” value in the data set on Hepatotoxicity [11] was found to be 0. The compound further yielded a HepSE_liver disease in the data set with Hepatotoxicity [12] of 0. Besides, the HepSE_jaundice in the data set on Hepatotoxicity [13] worked out at 0. In the data set on Hepatotoxicity [14], this compound displayed a HepSE_hepatic necrosis of 0.

In the data set with Hepatotoxicity [1], `CCN(C)C(=O)Oc1cccc([C@H](C)N(C)C)c1` [RIVASTIGMINE] came in with a HepSE_cholelithiasis of 1. Also, the HepSE_hepatic failure in the data set with Hepatotoxicity [2] turned out to be 0. In the data set with Hepatotoxicity [3], the “HepSE_Combined Scores” value is given as 2. For the same compound, the “HepSE_elevated liver function tests” value in the data set on Hepatotoxicity [4] was 0. For the same compound, in the data set on Hepatotoxicity [5], the HepSE_cholecystitis was determined as 1. Moreover, in the data set with Hepatotoxicity [6], the HepSE_liver fatty was 0. In the data set with Hepatotoxicity [7], this compound registered a HepSE_bilirubinemia of 0. For the same compound, the HepSE_hepatomegaly with Hepatotoxicity [8] stood at 0. In the data set with Hepatotoxicity [9], this compound gave a HepSE_hepatitis of 0. Moreover, in the data set with Hepatotoxicity [10], the HepSE_cirrhosis is recorded as 0. The “HepSE_liver function tests abnormal” value in the data set on Hepatotoxicity [11] worked out at 0. In the data set with Hepatotoxicity [12], this compound showed a HepSE_liver disease of 0. In the data set with Hepatotoxicity [13], this compound returned a HepSE_jaundice of 0. In the data set on Hepatotoxicity [14], the HepSE_hepatic necrosis was 0.

For `C[C@@H](O)[C@H](CO)NC(=O)[C@@H]1CSSC[C@H](NC(=O)[C@H](N)Cc2ccccc2)C(=O)N[C@@H](Cc2ccccc2)C(=O)N[C@H](Cc2c[nH]c3ccccc23)C(=O)N[C@@H](CCCCN)C(=O)N[C@@H]([C@@H](C)O)C(=O)N1` (H-[dF]CF[dW]KTC-{Threoninol(2S,3R)}; disulfide 2-7), the HepSE_cholelithiasis with Hepatotoxicity [1] is given as 1. The compound also displayed a HepSE_hepatic failure in the data set on Hepatotoxicity [2] of 0. The “HepSE_Combined Scores” value in the data set with Hepatotoxicity [3] is on record as 6. The “HepSE_elevated liver function tests” value in the data set with Hepatotoxicity [4] is on record as 0. For the same compound, the HepSE_cholecystitis in the data set on Hepatotoxicity [5] was 1. The HepSE_liver fatty with Hepatotoxicity [6] is recorded as 1. Besides, the HepSE_bilirubinemia in the data set with Hepatotoxicity [7] is recorded as 1. The same compound gave a HepSE_hepatomegaly in the data set on Hepatotoxicity [8] of 0. The compound further registered a HepSE_hepatitis in the data set with Hepatotoxicity [9] of 1. The HepSE_cirrhosis in the data set with Hepatotoxicity [10] was 0. The “HepSE_liver function tests abnormal” value with Hepatotoxicity [11] was 0. Further, the HepSE_liver disease in the data set on Hepatotoxicity [12] is 0. Besides, the HepSE_jaundice in the data set on Hepatotoxicity [13] is listed as 1. Also, the HepSE_hepatic necrosis in the data set on Hepatotoxicity [14] was determined as 0.

Turning to `C[C@@H](O[C@H]1OCCN(Cc2n[nH]c(=O)[nH]2)[C@H]1c1ccc(F)cc1)c1cc(C(F)(F)F)cc(C(F)(F)F)c1` [APREPITANT], in the data set with Hepatotoxicity [1], the HepSE_cholelithiasis is 0. The compound further displayed a HepSE_hepatic failure with Hepatotoxicity [2] of 0. Also, in the data set with Hepatotoxicity [3], the “HepSE_Combined Scores” value worked out at 0. Besides, in the data set with Hepatotoxicity [4], the “HepSE_elevated liver function tests” value was 0. This compound had a HepSE_cholecystitis in the data set on Hepatotoxicity [5] of 0. This compound also came in with a HepSE_liver fatty in the data set on Hepatotoxicity [6] of 0. Further, the HepSE_bilirubinemia with Hepatotoxicity [7] amounted to 0. Also, in the data set on Hepatotoxicity [8], the HepSE_hepatomegaly is given as 0. The compound further displayed a HepSE_hepatitis with Hepatotoxicity [9] of 0. For the same compound, the HepSE_cirrhosis with Hepatotoxicity [10] is 0. Also, the “HepSE_liver function tests abnormal” value with Hepatotoxicity [11] turned out to be 0. Further, in the data set on Hepatotoxicity [12], the HepSE_liver disease worked out at 0. Further, the HepSE_jaundice in the data set on Hepatotoxicity [13] came out at 0. In the data set with Hepatotoxicity [14], this compound showed a HepSE_hepatic necrosis of 0.
